These results are taken from patent publication US11045510B2, “Combination of aqueous extracts of watercress and nasturtium and ATP for use in the treatment of alopecia” (PIERRE FABRE DERMO-COSMETIQUE, priority 2017, dated 2021).

Structures are written as SMILES.

In assay [1] the test system is keratinocyte growth factor (KGF) released by dermal papilla cells. Description: KGF release by dermal papilla cells derived from human hair follicles. The assay is classed as cell-based. The settings on record: ATP 30 μM. On the procedure: (§1) The goal of this study is to evaluate the effects of the combination of an aqueous extract of watercress and of an aqueous extract of Indian cress, combined with ATP on the release of 2 anagen phase markers, hepatocyte growth factor (HGF) and keratinocyte growth factor (KGF), released by dermal papilla cells. These two growth factors have a stimulatory activity on hair growth by activating specific signalling pathways.
(§2) The studies were carried out on dermal papilla cells derived from human hair follicles from three different donors. The cells are seeded in 24-well plates and cultured for 24 h with the necessary supplements. The cells are then treated for 24 h with the products, i.e., either with ATP (30 μM), with Cressatine®, i.e., an aqueous extract of watercress and an aqueous extract of Indian cress (140 μg/ml), or with the combination ATP-Cressatine® at the same concentrations as before. The supernatants were collected for subsequent analysis of markers HGF and KGF. HGF is measured using set HCCBP1MAG-58K from EMD Millipore and KGF is measured by using set KGF/FGF-7 DuoSet ELISA DY251 from R&D Systems.

For assay [2], the system named is hepatocyte growth factor (HGF) released by dermal papilla cells. Description: HGF release by dermal papilla cells derived from human hair follicles. The assay is classed as cell-based. The settings on record: ATP 30 μM. On the procedure:
as §1, §2

[3] abbreviates: cells treated for 24 h, Cressatine 140 μg/ml, combination at same concentrations, average of 3 donors.

Take `Nc1ncnc2c1ncn2[C@@H]1O[C@H](COP(=O)(O)OP(=O)(O)OP(=O)(O)O)[C@@H](O)[C@H]1O` [ATP, adenosine 5′-triphosphate]: in assay [1] (setting [3]), the KGF was found to be 37 pg/mL. For the same compound, in assay [1] (versus control, 24 h), the “higher secretion of KGF” value came out at 50%. Also, the HGF in assay [2] (setting [3]) was determined as 92 pg/mL. In addition, the “modulation of the production of HGF (in words)” value in assay [2] (versus control, 24 h) is listed as “does not significantly modulate”.
